The values below come from patent publication US10899738B2 (THE REGENTS OF THE UNIVERSITY OF MICHIGAN, priority 2016, dated 2021).

The target of one assay is menin protein (Homo sapiens (Human), UniProt O00255). The assay can be described thus: biochemical. The class given is binding. Particulars: FP competitive binding; menin protein 4 nM, FAM-MM2 probe 2 nM; read-out: Menin Binding Affinity IC50. Summed up: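 Test compounds displaced FAM-MM2 (2 nM) from 4 nM menin after 30 min equilibration at room temperature in PBS buffer containing bovine γ-globulin, 4% DMSO and Triton X-100. Binding was followed by fluorescence polarization. Competition curves were fitted by nonlinear regression to give IC50 and Ki.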

Assay [1] is described as follows: Cell growth inhibition, CellTiter-Glo Luminescent Cell Viability Assay. The format is cell-based. In outline:
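Cells seeded at 2,000/well with serially diluted compound and cultured 4 days at 37 °C, 5% CO2. Viability read by CellTiter-Glo luminescence; IC50 derived from dose-response.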
(In general: ATP-based viability assays read luminescence as a measure of living cells.)

[2] abbreviates: MOLM-13, 96 h, read-out: Cell Growth Inhibition IC50 (μM) MOLM13, MOLM13 cells, 4 days, CellTiter-Glo.
Setting [3] is: MV4-11, 96 h, read-out: Cell Growth Inhibition IC50 (μM) MV4, 11, MV4, 11 cells, 4 days, CellTiter-Glo.
The mark [4] stands for this setting: MOLM-13, 96 h, MOLM13 cells, 4 days, CellTiter-Glo, read-out: Cell Growth Inhibition IC50 (μM) MOLM13.
The mark [5] stands for this setting: MV4-11, 96 h, MV4, 11 cells, 4 days, CellTiter-Glo, read-out: Cell Growth Inhibition IC50 (μM) MV4, 11.

Molecules are shown by their SMILES. Where two headings read alike, the source gives them in different places.

Chain of menin protein (O00255 whole entry): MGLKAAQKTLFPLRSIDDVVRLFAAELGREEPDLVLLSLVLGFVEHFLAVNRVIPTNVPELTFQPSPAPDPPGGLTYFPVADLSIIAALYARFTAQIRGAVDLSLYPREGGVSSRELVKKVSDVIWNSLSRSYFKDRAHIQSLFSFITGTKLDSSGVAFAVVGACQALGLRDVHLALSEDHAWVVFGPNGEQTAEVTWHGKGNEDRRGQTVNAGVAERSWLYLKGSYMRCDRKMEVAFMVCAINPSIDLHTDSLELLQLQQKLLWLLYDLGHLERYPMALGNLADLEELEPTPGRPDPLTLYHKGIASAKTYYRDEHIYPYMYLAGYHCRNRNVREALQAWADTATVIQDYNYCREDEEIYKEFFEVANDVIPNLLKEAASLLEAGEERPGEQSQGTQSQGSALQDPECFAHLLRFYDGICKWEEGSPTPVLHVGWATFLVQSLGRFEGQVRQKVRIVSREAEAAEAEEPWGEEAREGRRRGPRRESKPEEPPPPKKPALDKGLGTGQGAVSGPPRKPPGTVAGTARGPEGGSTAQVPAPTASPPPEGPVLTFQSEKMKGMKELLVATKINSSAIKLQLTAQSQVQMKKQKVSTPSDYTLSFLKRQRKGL

As a reminder, the IC50 is the concentration at which inhibition is half-maximal. As for `N#CC(c1ccccc1)(C1CCN(CC2CN(c3ccc(S(=O)(=O)c4ccccc4)cc3)C2)CC1)[C@H]1CCC[C@@H]1OC(N)=O` (mixture of isomers) [compound 223, rac-(1S,2R)-2-(cyano(phenyl)(1-((1-(4-(phenylsulfonyl)phenyl)azetidin-3-yl)methyl)piperidin-4-yl)methyl)cyclopentyl carbamate], the IC50 is 14 nM at menin protein, 0.49 µM in assay [1] (setting [2]) and 0.29 µM in assay [1] (setting [3]).

Regarding `CCN1Cc2ccccc2C(C2CCN(CC3CN(c4ccc(S(=O)(=O)C5CC5)cc4)C3)CC2)([C@H]2CCC[C@@H]2NC(=O)NC)C1` (mixture of isomers) [compound 289, rac-1-((1S,2R)-2-(4-(1-((1-(4-(cyclopropylsulfonyl)phenyl)azetidin-3-yl)methyl)piperidin-4-yl)-2-ethyl-1,2,3,4-tetrahydroisoquinolin-4-yl)cyclopentyl)-3-methylurea], the IC50 stood at 4 nM on menin protein, 0.32 µM in assay [1] (setting [2]) and 0.17 µM in assay [1] (setting [3]).

As for `CNC(=O)O[C@H]1CCC[C@@H]1C(Cn1ccnc1C)(c1cccc(F)c1)C1CCN(CC2CN(c3ccc(S(=O)(=O)c4cnn(C)c4)cc3)C2)CC1` (mixture of isomers) [compound 411, rac-(1S,2R)-2-(1-(3-fluorophenyl)-2-(2-methyl-1H-imidazol-1-yl)-1-(1-((1-(4-((1-methyl-1H-pyrazol-4-yl)sulfonyl)phenyl)azetidin-3-yl)methyl)piperidin-4-3-yl)ethyl)cyclopentyl methylcarbamate], the results for the IC50 (at menin protein; in assay [1] (setting [2]); in assay [1] (setting [3])) were 3 nM, 0.016 µM and 0.003 µM, respectively.

For `N#CC(c1ccccc1)(C1CCN(CC2CN(c3ccc(S(=O)(=O)c4ccncc4)cc3)C2)CC1)[C@H]1CCC[C@@H]1OC(N)=O` (mixture of isomers) [compound 211, rac-(1S,2R)-2-(cyano(phenyl)(1-((1-(4-(pyridin-4-ylsulfonyl)phenyl)azetidin-3-yl)methyl)piperidin-4-yl)methyl)cyclopentyl carbamate], the IC50 worked out at 9 nM on menin protein, 0.546 µM in assay [1] (setting [2]) and 0.302 µM in assay [1] (setting [3]).

Consider `O=S(=O)(c1ccncc1)c1ccc(N2CC(CN3CCC(C4(C5CCCC5)NCCc5ccccc54)CC3)C2)cc1` (stereo not drawn) [compound 151, 1-cyclopentyl-1-(1-((1-(4-(pyridin-4-ylsulfonyl)phenyl)azetidin-3-yl)methyl)piperidin-4-yl)-1,2,3,4-tetrahydroisoquinoline], for which the figures for the half-maximal inhibitory concentration (IC50) (on menin protein; in assay [1] (setting [4]); in assay [1] (setting [5])) were 15 nM, 0.627 µM and 1.3 µM, respectively.

With `COC(=O)N[C@H]1CCC[C@@H]1C(C#N)(c1ccccc1)C1CCN(CC2CN(c3ccc(S(=O)(=O)c4cnn(C)c4)cc3)C2)CC1` (mixture of isomers) [Cpd. No. 349, methyl (rac-(1S,2R)-2-(cyano(1-((1-(4-((1-methyl-1H-pyrazol-4-yl)sulfonyl)phenyl)azetidin-3-yl)methyl)piperidin-4-yl)(phenyl)methyl)cyclopentyl)carbamate], the IC50 stood at 15 nM at menin protein, 0.87 µM in assay [1] (setting [2]) and 0.44 µM in assay [1] (setting [3]).

With `CNC(=O)O[C@H]1CCC[C@@H]1C(Cn1ccnc1)(c1ccccc1)C1CCN(CC2CN(c3ccc(Cl)cc3)C2)CC1` (mixture of isomers) [compound 407, rac-(1S,2R)-2-(1-(1-((1-(4-chlorophenyl)azetidin-3-yl)methyl)piperidin-4-yl)-2-(1H-imidazol-1-yl)-1-phenylethyl)cyclopentyl methylcarbamate], the IC50 on menin protein came out at 5 nM; in assay [1] (setting [2]), 0.69 ± 0.089 µM; in assay [1] (setting [3]), 0.41 ± 0.28 µM.

Consider `O=S(=O)(c1ccncc1)c1ccc(N2CC(CN3CCC(C4(C5CCCC5)CNCc5ccccc54)CC3)C2)cc1` (stereo not drawn) [compound 51, 4-cyclopentyl-4-(1-((1-(4-(pyridin-4-ylsulfonyl)phenyl)azetidin-3-yl)methyl)piperidin-4-yl)-1,2,3,4-tetrahydroisoquinoline], for which the IC50 at menin protein worked out at 8 nM; in assay [1] (setting [4]), 1.46 µM; in assay [1] (setting [5]) it was 0.67 µM.

As for `CC(=O)O[C@H]1CCC[C@@H]1C(C#N)(c1ccccc1)C1CCN(CC2CN(c3ccc(S(=O)(=O)c4ccncc4)cc3)C2)CC1` (mixture of isomers) [compound 185, rac-(1S,2R)-2-(cyano(phenyl)(1-((1-(4-(pyridin-4-ylsulfonyl)phenyl)azetidin-3-yl)methyl)piperidin-4-yl)methyl)cyclopentyl acetate], the IC50 turned out to be 7 nM at menin protein, 0.783 ± 0.474 µM in assay [1] (setting [2]) and 0.624 ± 0.165 µM in assay [1] (setting [3]).

`CC(C)N1Cc2ccccc2C(C2CCCC2)(C2CCN(CC3CN(c4ccc(S(=O)(=O)c5ccncc5)cc4)C3)CC2)C1` (stereo not drawn) [compound 48, 4-cyclopentyl-2-isopropyl-4-(1-((1-(4-(pyridin-4-ylsulfonyl)phenyl)azetidin-3-yl)methyl)piperidin-4-yl)-1,2,3,4-tetrahydroisoquinoline]: the IC50 at menin protein was found to be 7 nM; in assay [1] (setting [4]) it was 2.8 µM; in assay [1] (setting [5]), 0.908 µM.

Take `CNC(=O)O[C@H]1CCC[C@@H]1C(C#N)(c1ccccc1)C1CCN(C2CCN(c3ccc(S(=O)(=O)c4ccccc4)cc3)CC2)CC1` (mixture of isomers) [compound 234, rac-(1S,2R)-2-(cyano(phenyl)(1′-(4-(phenylsulfonyl)phenyl)-[1,4′-bipiperidin]-4-yl)methyl)cyclopentyl methylcarbamate]: the IC50 at menin protein came out at 50 nM; in assay [1] (setting [2]), 6.41 µM; in assay [1] (setting [3]), 1.11 µM.

Regarding `CCN1Cc2ccccc2C(C2CCCC2)(C2CCN(CC3CN(c4ccc(S(=O)(=O)c5ccn(C)c5)cc4)C3)CC2)C1` (stereo not drawn) [compound 101, 4-cyclopentyl-2-ethyl-4-(1-((1-(4-((1-methyl-1H-pyrrol-3-yl)sulfonyl)phenyl)azetidin-3-yl)methyl)piperidin-4-yl)-1,2,3,4-tetrahydroisoquinoline], the IC50 at menin protein was found to be 10 nM; in assay [1] (setting [4]), 0.73 µM; in assay [1] (setting [5]), 0.3 µM.

In the case of `CNC(=O)O[C@H]1CCC[C@@H]1C(C#N)(c1ccccc1)C1CCN(CCCOc2ccc(C#N)cc2)CC1` (mixture of isomers) [compound 232, rac-(1S,2R)-2-(cyano(1-(3-(4-cyanophenoxy)propyl)piperidin-4-yl)(phenyl)methyl)cyclopentyl methylcarbamate], the IC50 at menin protein stood at 20 nM; in assay [1] (setting [2]), 0.94 µM; in assay [1] (setting [3]) it was 0.3 µM.

On to `COC(=O)N[C@H]1CCC[C@@H]1C(C#N)(c1ccccc1)C1CCN(CC2CN(c3ccc(S(=O)(=O)c4ccccc4)cc3)C2)CC1` (mixture of isomers) [compound 347, methyl (rac-(1S,2R)-2-(cyano(phenyl)(1-((1-(4-(phenylsulfonyl)phenyl)azetidin-3-yl)methyl)piperidin-4-yl)methyl)cyclopentyl) carbamate], for which the results for the IC50 (at menin protein; in assay [1] (setting [2]); in assay [1] (setting [3])) were 14 nM, 0.44 µM and 0.36 µM, respectively.

With `O=S(=O)(CC1CCCCC1)c1ccc(N2CC(CN3CCC(C4(C5CCCC5)NCCc5ccccc54)CC3)C2)cc1` (stereo not drawn) [compound 93, 1-(1-((1-(4-((cyclohexylmethyl)sulfonyl)phenyl)azetidin-3-yl)methyl)piperidin-4-yl)-1-cyclopentyl-1,2,3,4-tetrahydroisoquinoline], the values for the half-inhibitory concentration (IC50) (on menin protein; in assay [1] (setting [4]); in assay [1] (setting [5])) were 52 nM, 1.1 ± 0.7 µM and 0.779 ± 0.068 µM, respectively.

`CNC(=O)O[C@@H]1CCC[C@H]1[C@@](C#N)(c1ccccc1)C1CCN(CC2CN(c3ccc(S(=O)(=O)c4ccncc4)cc3)C2)CC1` (mixture of isomers) [compound 354, rac-(1R,2S)-2-((R)-cyano(phenyl)(1-((1-(4-(pyridin-4-ylsulfonyl)phenyl)azetidin-3-yl)methyl)piperidin-4-yl)methyl)cyclopentyl methylcarbamate]: the figures for the IC50 (at menin protein; in assay [1] (setting [2]); in assay [1] (setting [3])) were 62 nM, 4.7 µM and 1.3 µM, respectively.

In the case of `CCN1Cc2ccccc2C(C2CCN(CC3CN(c4ccc(S(=O)(=O)c5cnn(C)c5)cc4)C3)CC2)([C@H]2CCC[C@@H]2NC(C)=O)C1` (mixture of isomers) [Cpd. No. 292, rac-N-((1S,2R)-2-(2-ethyl-4-(1-((1-(4-((1-methyl-1H-pyrazol-4-yl)sulfonyl)phenyl)azetidin-3-yl)methyl)piperidin-4-yl)-1,2,3,4-tetrahydroisoquinolin-4-yl)cyclopentyl)acetamide], the IC50 was determined as 11 nM at menin protein, 1.34 µM in assay [1] (setting [2]) and 0.13 µM in assay [1] (setting [3]).

On to `COC(=O)N[C@H]1CCC[C@@H]1C(C#N)(c1ccccc1)C1CCN(CC2(C)CN(c3ccc(S(=O)(=O)c4cnn(C)c4)cc3)C2)CC1` (mixture of isomers) [compound 398, methyl rac-((1S,2R)-2-(cyano(1-((3-methyl-1-(4-((1-methyl-1H-pyrazol-4-yl)sulfonyl)phenyl)azetidin-3-yl)methyl)piperidin-4-yl)(phenyl)methyl)cyclopentyl) carbamate], for which the values for the IC50 (on menin protein; in assay [1] (setting [2]); in assay [1] (setting [3])) were 167 nM, more than 10 µM and 4.57 µM, respectively.

Take `CNC(=O)O[C@H]1CCC[C@@H]1C(C#N)(c1ccccc1)C1CCN(CC2CN(c3ccc(S(=O)(=O)c4cnn(C)c4)cc3)C2)CC1` (mixture of isomers) [compound 240, rac-(1S,2R)-2-(cyano(1-((1-(4-((1-methyl-1H-pyrazol-4-yl)sulfonyl)phenyl)azetidin-3-yl)methyl)piperidin-4-yl)(phenyl)methyl) cyclopentyl methylcarbamate]: the IC50 came out at 9 nM on menin protein, 0.54 µM in assay [1] (setting [2]) and 0.2 µM in assay [1] (setting [3]).
